Patent US12077503B2, “Substituted cyclic amides and their use as herbicides” (FMC CORPORATION, priority 2015, dated 2024)

Tests used:
Type in all cases: in vivo
[1] = tested on: Kochia (Kochia scoparia); experiment: Test A preemergence; conditions: for Plant response rating, Kochia: 125 g ai/ha, preemergence, 0 to 100 scale (0 no effect, 100 complete control); for Kochia plant response rating (0 to 100 scale, 0 is no effect, 100 is complete control): Preemergence, 500 g ai/ha, visual injury approx. 10 d
How it was run: (§1)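 Compounds were formulated in a non-phytotoxic solvent mixture with surfactant and applied as a preemergence directed soil spray after seeding, or sprayed postemergence over plants 2 to 10 cm tall at the one- to two-leaf stage. Evaluation after about 10 d compared treated with untreated controls, using a scale from 0 (no effect) to 100 (complete control).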

[2] = tested on: barnyardgrass (Echinochloa crus-galli); experiment: Test A preemergence; conditions: for Plant response rating, Barnyardgrass: 125 g ai/ha, preemergence, 0 to 100 scale (0 no effect, 100 complete control); for Barnyardgrass plant response rating (0 to 100 scale, 0 is no effect, 100 is complete control): Preemergence, 500 g ai/ha, visual injury approx. 10 d
How it was run: as §1

[3] = tested on: giant foxtail (Setaria faberii); experiment: Test A preemergence; conditions: for Plant response rating, Foxtail, Giant: 125 g ai/ha, preemergence, 0 to 100 scale (0 no effect, 100 complete control); for Foxtail, Giant plant response rating (0 to 100 scale, 0 is no effect, 100 is complete control): Preemergence, 500 g ai/ha, visual injury approx. 10 d
How it was run: as §1

[4] = tested on: pigweed (Amaranthus retroflexus); experiment: Test A preemergence; conditions: for Plant response rating, Pigweed: 125 g ai/ha; for Pigweed plant response rating (0 to 100 scale, 0 is no effect, 100 is complete control): 500 g ai/ha, visual injury approx. 10 d
[5] = tested on: ragweed (common ragweed, Ambrosia elatior); experiment: Test A preemergence; conditions: for Plant response rating, Ragweed: 125 g ai/ha; for Ragweed plant response rating (0 to 100 scale, 0 is no effect, 100 is complete control): 500 g ai/ha, visual injury approx. 10 d
How it was run: as §1

[6] = tested on: ryegrass, Italian (Italian ryegrass, Lolium multiflorum); experiment: Test A preemergence; conditions: for Plant response rating, Ryegrass, Italian: 125 g ai/ha; for Ryegrass, Italian plant response rating (0 to 100 scale, 0 is no effect, 100 is complete control): 500 g ai/ha, visual injury approx. 10 d
How it was run: as §1

[7] = tested on: Galium (catchweed bedstraw, Galium aparine); experiment: Test A postemergence; conditions: for Galium plant response rating: 125 g ai/ha, visual injury rating on 0 to 100 scale (0 no effect, 100 complete control), approx. 10 d; for Plant response rating, Galium: 500 g ai/ha
How it was run: as §1

[8] = tested on: Kochia (Kochia scoparia); experiment: Test A postemergence; conditions: for Kochia plant response rating: 125 g ai/ha, visual injury rating on 0 to 100 scale (0 no effect, 100 complete control), approx. 10 d; for Plant response rating, Kochia: 500 g ai/ha
How it was run: as §1

[9] = tested on: barnyardgrass (Echinochloa crus-galli); experiment: Test A postemergence; conditions: postemergence; for Barnyardgrass plant response rating: 125 g ai/ha, visual injury rating on 0 to 100 scale (0 no effect, 100 complete control), approx. 10 d; for Plant response rating, Barnyardgrass: 500 g ai/ha, 0 to 100 scale, 0 no effect, 100 complete control
How it was run: as §1

[10] = tested on: blackgrass (Alopecurus myosuroides); experiment: Test A postemergence; conditions: postemergence; for Blackgrass plant response rating: 125 g ai/ha, visual injury rating on 0 to 100 scale (0 no effect, 100 complete control), approx. 10 d; for Plant response rating, Blackgrass: 500 g ai/ha, 0 to 100 scale, 0 no effect, 100 complete control
How it was run: as §1

[11] = tested on: corn (Zea mays); experiment: Test A postemergence; conditions: postemergence; for Corn plant response rating: 125 g ai/ha, visual injury rating on 0 to 100 scale (0 no effect, 100 complete control), approx. 10 d; for Plant response rating, Corn: 500 g ai/ha, 0 to 100 scale, 0 no effect, 100 complete control
How it was run: as §1

[12] = tested on: giant foxtail (Setaria faberii); experiment: Test A postemergence; conditions: for Foxtail, Giant plant response rating: 125 g ai/ha, visual injury rating on 0 to 100 scale (0 no effect, 100 complete control), approx. 10 d; for Plant response rating, Foxtail, Giant: 500 g ai/ha
How it was run: as §1

[13] = tested on: pigweed (Amaranthus retroflexus); experiment: Test A postemergence; conditions: for Pigweed plant response rating: 125 g ai/ha, visual injury rating on 0 to 100 scale (0 no effect, 100 complete control), approx. 10 d; for Plant response rating, Pigweed: 500 g ai/ha
How it was run: as §1

[14] = tested on: ragweed (common ragweed, Ambrosia elatior); experiment: Test A postemergence; conditions: for Ragweed plant response rating: 125 g ai/ha, visual injury rating on 0 to 100 scale (0 no effect, 100 complete control), approx. 10 d; for Plant response rating, Ragweed: 500 g ai/ha
How it was run: as §1

[15] = tested on: ryegrass, Italian (Italian ryegrass, Lolium multiflorum); experiment: Test A postemergence; conditions: for Ryegrass, Italian plant response rating: 125 g ai/ha, visual injury rating on 0 to 100 scale (0 no effect, 100 complete control), approx. 10 d; for Plant response rating, Ryegrass, Italian: 500 g ai/ha
How it was run: as §1

[16] = tested on: wheat (Triticum aestivum); experiment: Test A postemergence; conditions: for Wheat plant response rating: 125 g ai/ha, visual injury rating on 0 to 100 scale (0 no effect, 100 complete control), approx. 10 d; for Plant response rating, Wheat: 500 g ai/ha
How it was run: as §1

[17] = tested on: barnyardgrass (Echinochloa crus-galli); experiment: Test B flooded paddy test; conditions: Flood, 250 g ai/ha; 0 to 100 scale where 0 is no effect and 100 is complete control; 13 to 15 d
How it was run: (§2)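 Evaluation by eye, against controls, occurred 13–15 d post-treatment in a greenhouse, using a 0 (no effect) to 100 (complete control) scale. Application was into the paddy water, 3 cm deep over the soil, on 2-leaf plants.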

[18] = tested on: ducksalad (Heteranthera limosa); experiment: Test B flooded paddy test; conditions: Flood, 250 g ai/ha; 0 to 100 scale where 0 is no effect and 100 is complete control; 13 to 15 d
How it was run: as §2

[19] = tested on: rice (Oryra sativa); experiment: Test B flooded paddy test; conditions: Flood, 250 g ai/ha; 0 to 100 scale where 0 is no effect and 100 is complete control; 13 to 15 d
How it was run: as §2

[20] = tested on: sedge, umbrella (small-flower umbrella sedge, Cyperus difformis); experiment: Test B flooded paddy test; conditions: Flood, 250 g ai/ha; 0 to 100 scale where 0 is no effect and 100 is complete control; 13 to 15 d
How it was run: as §2

[21] = preemergence, 0 to 100 scale (0 no effect, 100 complete control)
[22] = postemergence, 0 to 100 scale, 0 no effect, 100 complete control
[23] = Preemergence, visual injury after approximately 10 d, 0 to 100 scale where 0 is no effect and 100 is complete control
[24] = Postemergence, 0 to 100 scale where 0 is no effect and 100 is complete control

Compound	Plant response rating, Kochia [1]	Kochia plant response rating (0 to 100 scale, 0 is no effect, 100 is complete control) [1]	Plant response rating, Barnyardgrass [2]	Barnyardgrass plant response rating (0 to 100 scale, 0 is no effect, 100 is complete control) [2]	Plant response rating, Foxtail, Giant [3]	Foxtail, Giant plant response rating (0 to 100 scale, 0 is no effect, 100 is complete control) [3]	Pigweed plant response rating (0 to 100 scale, 0 is no effect, 100 is complete control) ([4]; Preemergence)	Ryegrass, Italian plant response rating (0 to 100 scale, 0 is no effect, 100 is complete control) ([6]; Preemergence)	Galium plant response rating ([7]; postemergence)	Kochia plant response rating ([8]; postemergence)	Barnyardgrass plant response rating [9]	Plant response rating, Barnyardgrass [9]	Blackgrass plant response rating [10]	Plant response rating, Blackgrass [10]	Corn plant response rating [11]	Plant response rating, Corn [11]	Foxtail, Giant plant response rating ([12]; postemergence)	Pigweed plant response rating ([13]; postemergence)	Ragweed plant response rating ([14]; postemergence)	Ryegrass, Italian plant response rating ([15]; postemergence)	further results
O=C(Nc1ccccc1F)C1C(=O)N(c2ccccc2)CC1c1cccc(C(F)(F)F)c1 (centres unmarked) [Compound 456]	0	0	0	0	0	0	0	0	0	0	0	0	0	0	0	0	0	0	0	0	Plant response rating, Pigweed [4, 21]: 0; Plant response rating, Ragweed [5, 21]: 0; Ragweed plant response rating (0 to 100 scale, 0 is no effect, 100 is complete control) ([5]; Preemergence): 0; Plant response rating, Ryegrass, Italian [6, 21]: 0; Plant response rating, Galium [7, 22]: 0; Plant response rating, Kochia [8, 22]: 0; Plant response rating, Foxtail, Giant [12, 22]: 0; Plant response rating, Pigweed [13, 22]: 0; Plant response rating, Ragweed [14, 22]: 0; Plant response rating, Ryegrass, Italian [15, 22]: 0; Wheat plant response rating ([16]; postemergence): 0; Plant response rating, Wheat [16, 22]: 0; Plant response rating, Barnyardgrass [17]: 0; Plant response rating, Ducksalad [18]: 0; Plant response rating, Rice [19]: 0; Plant response rating, Sedge, Umbrella [20]: 0
CC(C)c1ccc(C2CNC(=O)C2C(=O)Nc2ccccc2F)cc1 (centres unmarked) [Compound 469]	0	0	80	90	80	90	0	0	0	0	70	80	0	40	0	0	20	0	0	0	Plant response rating, Pigweed [4, 23]: 0; Plant response rating, Ragweed [5, 23]: 0; Ragweed plant response rating (0 to 100 scale, 0 is no effect, 100 is complete control) ([5]; Preemergence): 0; Plant response rating, Ryegrass, Italian [6, 23]: 0; Plant response rating, Galium [7, 24]: 0; Plant response rating, Kochia [8, 24]: 0; Plant response rating, Foxtail, Giant [12, 24]: 60; Plant response rating, Pigweed [13, 24]: 0; Plant response rating, Ragweed [14, 24]: 0; Plant response rating, Ryegrass, Italian [15, 24]: 20; Wheat plant response rating ([16]; postemergence): 0; Plant response rating, Wheat [16, 24]: 0; Plant response rating, Barnyardgrass [17]: 40; Plant response rating, Ducksalad [18]: 70; Plant response rating, Rice [19]: 0; Plant response rating, Sedge, Umbrella [20]: 0
CC(C)c1ccc(C2CNC(=O)C2C(=O)Nc2cccc(F)c2F)cc1 (centres unmarked) [Compound 470]	70	40	90	90	90	90	20	30	0	0	60	70	30	50	0	0	40	0	0	0	Plant response rating, Pigweed [4, 23]: 0; Plant response rating, Ragweed [5, 23]: 0; Plant response rating, Ryegrass, Italian [6, 23]: 0; Plant response rating, Galium [7, 24]: 0; Plant response rating, Kochia [8, 24]: 0; Plant response rating, Foxtail, Giant [12, 24]: 80; Plant response rating, Pigweed [13, 24]: 0; Plant response rating, Ragweed [14, 24]: 0; Plant response rating, Ryegrass, Italian [15, 24]: 20; Wheat plant response rating ([16]; postemergence): 0; Plant response rating, Wheat [16, 24]: 0; Plant response rating, Barnyardgrass [17]: 0; Plant response rating, Ducksalad [18]: 85; Plant response rating, Rice [19]: 0; Plant response rating, Sedge, Umbrella [20]: 0
